This assay deals with recombinant human mGluR2 (Homo sapiens (Human), UniProt Q14416). The assay can be described thus: FLIPR Ca2+ mobilization assay, potentiation of glutamate response. The format is cell-based. The settings on record: CHO dhfr- cells expressing human mGluR2 and Gα16; potentiation with EC20 glutamate (900 nM); read-out: hFLIPR pot. EC50. The procedure:
Inhibition constants are determined as follows. The compounds of the present invention may be tested in a […] (FLIPR) based assay. This assay is a common functional assay to monitor Ca^2+ mobilization in whole cells expressing recombinant receptor coupled with a promiscuous G-protein. CHO dhfr-cells stably expressing recombinant human mGluR2 and Gα16 loaded with Fluo-4 AM (Invitrogen, Carlsbad Calif.) are treated with dose responses of compounds and the Ca^2+ response is monitored on a FLIPR384 (Molecular Devices, Sunnydale Calif.) for agonist activity. The potentiation response is monitored after a subsequent addition of an EC20 concentration of glutamate (900 nM). The maximum calcium response at each concentration of compound for agonist or potentiation are plotted as dose responses and the curves are fitted with a four parameters logistic equation giving EC50 and Hill coefficient using the iterative non linear curve fitting software program.
recombinant human mGluR2, sequence (Q14416 19-872): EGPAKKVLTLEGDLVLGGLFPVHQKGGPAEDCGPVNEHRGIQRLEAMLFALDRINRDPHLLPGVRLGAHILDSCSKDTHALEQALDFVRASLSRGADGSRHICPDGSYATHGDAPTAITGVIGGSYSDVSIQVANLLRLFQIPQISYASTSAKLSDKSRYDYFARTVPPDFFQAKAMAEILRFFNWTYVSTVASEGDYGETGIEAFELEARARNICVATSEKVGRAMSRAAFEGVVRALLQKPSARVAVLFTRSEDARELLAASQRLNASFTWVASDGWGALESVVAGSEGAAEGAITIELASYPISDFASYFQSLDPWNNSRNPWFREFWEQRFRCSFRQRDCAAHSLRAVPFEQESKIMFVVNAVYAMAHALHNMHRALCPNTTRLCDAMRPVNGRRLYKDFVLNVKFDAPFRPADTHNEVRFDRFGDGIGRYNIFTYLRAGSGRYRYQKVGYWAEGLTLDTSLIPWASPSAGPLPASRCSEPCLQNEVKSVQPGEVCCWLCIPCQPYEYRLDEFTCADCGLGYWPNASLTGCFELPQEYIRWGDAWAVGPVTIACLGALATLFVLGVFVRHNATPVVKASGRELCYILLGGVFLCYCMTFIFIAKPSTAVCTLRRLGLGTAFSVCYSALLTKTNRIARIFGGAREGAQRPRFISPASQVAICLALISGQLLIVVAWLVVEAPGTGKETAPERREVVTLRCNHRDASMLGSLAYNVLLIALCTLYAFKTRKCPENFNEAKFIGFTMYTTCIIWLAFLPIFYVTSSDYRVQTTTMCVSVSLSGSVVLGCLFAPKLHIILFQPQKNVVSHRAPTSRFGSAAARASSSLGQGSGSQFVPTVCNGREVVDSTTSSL
A word on the EC50: it is the concentration at which the effect is half-maximal. Take `Cn1c(=O)n(CC(C)(C)C)c2ccc(C3CCC(C)(C)C(NC(=O)CCn4cncn4)C3)nc21` (stereo not shown) [Compound 18-10, N-{5-[1-(2,2-dimethylpropyl)-3-methyl-2-oxo-2,3-dihydro-1H-imidazo[4,5-b]pyridin-5-yl]-2,2-dimethylcyclohexyl}-3-(1H-1,2,4-triazol-1-yl)propanamide]: the EC50 was determined as 2190 nM.
For `Cn1c(=O)n(CC(C)(C)C)c2ccc(C3=CCC(NC(=O)C4CCCO4)CC3)nc21` (stereo not shown) [Compound 17-20, N-{4-[1-(2,2-dimethylpropyl)-3-methyl-2-oxo-2,3-dihydro-1H-imidazo[4,5-b]pyridin-5-yl]cyclohex-3-en-1-yl}tetrahydrofuran-2-carboxamide] the value was 333 nM.
For the molecule `CC1C(c2ccc3c(n2)N(C)S(=O)(=O)N3CC2CC2(F)F)C1C(C)(C)O` (stereo not shown) [Compound 34-3, 2-(2-{1-[(2,2-difluorocyclopropyl)methyl]-3-methyl-2,2-dihydro[1,2,5]thiadiazolo[3,4-b]pyridin-5-yl}-3-methylcyclopropyl) propan-2-ol], the EC50 is 14.4 nM.
Under `Cn1c(=O)n(CC(C)(C)C)c2ccc(C3=CC4CN(C(=O)c5ncco5)CC4C3)nc21` (stereo not shown) [Compound 8-38] stands 17.9 nM.
For `Cn1c(=O)n(CC(C)(C)C)c2ccc(C3CCC(C)(C)C(NC(=O)c4ccc(OC(F)(F)F)cc4)C3)nc21` (stereo not shown) [Compound 18-42, N-{5-[1-(2,2-dimethylpropyl)-3-methyl-2-oxo-2,3-dihydro-1H-imidazo[4,5-b]pyridin-5-yl]-2,2-dimethylcyclohexyl}-4-(trifluoro-methoxy)benzamide], the EC50 was 986 nM.
Turning to `Cn1c(=O)n(CC(C)(C)C)c2ccc(C3=CC4CN(C(=O)C5(O)CCC5)CC4C3)nc21` (stereo not shown) [Compound 8-14, 1-(2,2-dimethylpropyl)-5-{2-[(1-hydroxycyclobutyl)carbonyl]-1,2,3,3a,4,6a-hexahydrocyclopenta[c]pyrrol-5-yl}-3-methyl-1,3-dihydro-2H-imidazo[4,5-b]pyridin-2-one], the EC50 was 134 nM.
For `Cc1cccc(S(=O)(=O)NC2CC(c3ccc4c(n3)n(C)c(=O)n4CC(C)(C)C)CCC2(C)C)c1` (stereo not shown) [Compound 19-62, N-{5-[1-(2,2-dimethylpropyl)-3-methyl-2-oxo-2,3-dihydro-1H-imidazo[4,5-b]pyridin-5-yl]-2,2-dimethylcyclohexyl}-3-methylbenzenesulfonamide] the value was 116 nM.
Under `Cn1c(=O)n(CC2CC2(F)F)c2ccc(C3=CC4CCC3CN4C(=O)c3ccon3)nc21` (stereo not shown) [Compound 6-4, 1-[(2,2-Difluorocyclopropyl)methyl]-5-[2-(isoxazol-3-ylcarbonyl)-2-azabicyclo-[2.2.2]oct-5-en-5-yl]-3-methyl-1,3-dihydro-2H-imidazo[4,5-b]pyridin-2-one] stands 29 nM; under `Cn1c(=O)n(CC(C)(C)C)c2ccc(C3=CC4CCC3CN4C(=O)C3CC3)nc21` (stereo not shown) [Compound 2-16, 5-[2-(cyclopropylcarbonyl)-2-azabicyclo[2.2.2]oct-5-en-5-yl]-1-(2,2-dimethylpropyl)-3-methyl-1,3-dihydro-2H-imidazo[4,5-b]pyridin-2-one], 64.1 nM.
Under `Cn1c(=O)n(CC(C)(C)C)c2ccc(C3CCC(C)(C)C(NC(=O)c4cnsn4)C3)nc21` (stereo not shown) [Compound 18-200, N-{5-[1-(2,2-dimethylpropyl)-3-methyl-2-oxo-2,3-dihydro-1H-imidazo[4,5-b]pyridin-5-yl]-2,2-dimethylcyclohexyl}-1,2,5-thiadiazole-3-carboxamide] stands 43.2 nM; under `CN1c2nc(C3=CCN(C(=O)c4ccon4)C3)ccc2N(CC2CC2(F)F)S1(=O)=O` (stereo not shown) [Compound 24-20, 1-[(2,2-difluorocyclopropyl)methyl]-5-[1-(isoxazol-3-ylcarbonyl)-2,5-dihydro-1H-pyrrol-3-yl]-3-methyl-1,3-dihydro[1,2,5] thiadiazolo[3,4-b]pyridine 2,2-dioxide], 177 nM.
For `Cn1c(=O)n(CC(C)(C)C)c2ccc(C3=CC4CCC3CN4C(=O)c3csnn3)nc21` (stereo not shown) [Compound 2-8, 1-(2,2-dimethylpropyl)-3-methyl-5-[2-(1,2,3-thiadiazol-4-ylcarbonyl)-2-azabicyclo[2.2.2]oct-5-en-5-yl]-1,3-dihydro-2H-imidazo[4,5-b]pyridin-2-one], the EC50 amounted to 28.1 nM.
In the case of `CN1c2nc(C3=CC4CN(C(=O)C(C)(C)O)CC4C3)ccc2N(CC2CC2(F)F)S1(=O)=O` (stereo not shown) [Compound 24-7, 1-[5-{1-[(2,2-difluorocyclopropyl)methyl]-3-methyl-2,2-dioxido-1,3-dihydro[1,2,5]thiadiazolo[3,4-b]pyridin-5-yl}-3,3a,4,6a-tetrahydrocyclopenta [c]pyrrol-2(1H)-yl]-2-methyl-1-oxopropan-2-ol], the EC50 was found to be 48.5 nM.
Under `Cn1c(=O)n(CC(C)(C)C)c2ccc(C3CC4CN(C(=O)c5ncc[nH]5)CC4C3)nc21` (stereo not shown) [Compound 11-5, 1-(2,2-dimethylpropyl)-5-[2-(1H-imidazol-2-ylcarbonyl)octahydrocyclo-penta[c]pyrrol-5-yl]-3-methyl-1,3-dihydro-2H-imidazo[4,5-b]pyridin-2-one] stands 391 nM.
Under `Cn1cnc(S(=O)(=O)N2CCCC(c3ccc4c(n3)n(C)c(=O)n4CC(C)(C)C)C2)c1` (stereo not shown) [Compound 19-4, 1-(2,2-dimethylpropyl)-3-methyl-5-{1-[(1-methyl-1H-imidazol-4-yl)sulfonyl]piperidin-3-yl}-1,3-dihydro-2H-imidazo[4,5-b]pyridin-2-one] stands 951 nM.
For `Cn1c(=O)n(CC(C)(C)C)c2ccc(C3=CC4CCC3CN4C(=O)c3cccnc3)nc21` (stereo not shown) [Compound 2-9, 1-(2,2-dimethylpropyl)-3-methyl-5-[2-(pyridin-3-ylcarbonyl)-2-azabicyclo[2.2.2]oct-5-en-5-yl]-1,3-dihydro-2H-imidazo[4,5-b]pyridin-2-one] the value was 100 nM; for `Cn1cnc(C(=O)NCCCCc2ccc3c(n2)n(C)c(=O)n3CC(C)(C)C)c1` [Compound 38-5, N-{4-[1-(2,2-dimethylpropyl)-3-methyl-2-oxo-2,3-dihydro-1H-imidazo[4,5-b]pyridin-5-yl]butyl}-1-methyl-1H-imidazole-4-carboxamide], 1180 nM; for `Cn1c(=O)n(CC(C)(C)C)c2ccc(C3=CC4CN(C(=O)CO)CC4C3)nc21` (stereo not shown) [Compound 8-9, 1-(2,2-dimethylpropyl)-5-[2-(hydroxyacetyl)-1,2,3,3a,4,6a-hexahydrocyclopenta[c]pyrrol-5-yl]-3-methyl-1,3-dihydro-2H-imidazo[4,5-b]pyridin-2-one], 270 nM.
In the case of `Cn1c(=O)n(CC(C)(C)C)c2ccc(C3=CC4CCC3CN4C(=O)Cn3cncn3)nc21` (stereo not shown) [Compound 2-22, 1-(2,2-dimethylpropyl)-3-methyl-5-[2-(1H-1,2,4-triazol-1-ylacetyl)-2-azabicyclo[2.2.2]oct-5-en-5-yl]-1,3-dihydro-2H-imidazo[4,5-b]pyridin-2-one], the EC50 is 56.1 nM.
For `Cn1c(=O)n(CC2CC2(F)F)c2ccc(C3=CC4CN(C(=O)c5ncco5)CC4C3)nc21` (stereo not shown) [Compound 14-6, 1-[(2,2-difluoro-cyclopropyl)methyl]-3-methyl-5-[2-(1,3-oxazol-2-ylcarbonyl)-1,2,3,3a,4,6a-hexahydrocyclo-penta[c]pyrrol-5-yl]-1,3-dihydro-2H-imidazo[4,5-b]pyridin-2-one] the value was 123 nM; for `CN1c2nc(C3CCCNC3)ccc2N(CC2CC2(F)F)S1(=O)=O` (stereo not shown) [Compound 25-5, 1-[(2,2-difluorocyclopropyl)methyl]-3-methyl-5-piperidin-3-yl-1,3-dihydro[1,2,5] thiadiazolo[3,4-b]pyridine 2,2-dioxide], 359 nM; for `Cn1c(=O)n(CC(C)(C)C)c2ccc(C3=CC4CN(C(=O)C5(O)CCN(C(=O)OC(C)(C)C)C5)CC4C3)nc21` (stereo not shown) [Compound 8-6, tert-butyl 3-({5-[1-(2,2-dimethylpropyl)-3-methyl-2-oxo-2,3-dihydro-1H-imidazo[4,5-b]pyridin-5-yl]-3,3a,4,6a-tetrahydrocyclopenta[c]pyrrol-2(1H)-yl}carbonyl)-3-hydroxypyrrolidine-1-carboxylate], 513 nM.
Under `Cn1c(=O)n(CC(C)(C)C)c2ccc(C3=CCC(C(=O)NCc4ncco4)CC3)nc21` (stereo not shown) [Compound 17-15, 4-[1-(2,2-dimethylpropyl)-3-methyl-2-oxo-2,3-dihydro-1H-imidazo[4,5-b]pyridin-5-yl]-N-(1,3-oxazol-2-ylmethyl)cyclohex-3-ene-1-carboxamide] stands 594 nM; under `Cn1c(=O)n(CC(C)(C)C)c2ccc(C3CC4CCC3CN4C(=O)c3ccon3)nc21` (stereo not shown) [Compound 5-2, 1-(2,2-Dimethylpropyl)-5-[2-(isoxazol-3-ylcarbonyl)-2-azabicyclo[2.2.2]-oct-5-yl]-3-methyl-1,3-dihydro-2H-imidazo[4,5-b]pyridin-2-one], 322 nM; under `Cn1c(=O)n(CC(C)(C)C)c2ccc(C3=CC4CCC3CN4C(=O)c3ncco3)nc21` (stereo not shown) [Compound 2-34, 1-(2,2-dimethylpropyl)-3-methyl-5-[2-(1,3-oxazol-2-ylcarbonyl)-2-azabicyclo[2.2.2]oct-5-en-5-yl]-1,3-dihydro-2H-imidazo[4,5-b]pyridin-2-one], 22.8 nM.

The record behind these values is patent US9315518B2, “Imidazopyridin-2-one derivatives” (Merck Sharp & Dohme Corp., priority 2011, dated 2016).
